Assay results published in US20030215888A1, “Androgen receptor overexpressing skeletal myoblasts” (Pfizer Inc., priority 2002, published 2003).
Where two headings read alike, the source gives them in different places.

Tests used:
C2C12 cells [1] = details: for protein content / protein content, percentage difference from vehicle: 3 days in fusion medium
Procedure: (§1) Procedure A—Three days in fusion medium. C2hAR57 cells were plated in 12-well tissue culture plates (Costar, Corning, N.Y.) at 4×10^4 cells/well in high mitogen growth medium.

C2hAR57 cells [2] = details: for protein content / protein content, percentage difference from vehicle: 3 days in fusion medium
Procedure: as §1

C2hAR57 cells [3] = assay: [3H]-thymidine uptake assay, C2hAR57 cells; assay type: cell-based, mouse; details: 48 hours exposure
Procedure: After 48 hours exposure to the test agents, medium containing 0.1 μCi [^3H]-thymidine (82 Ci/mmol, Amersham, Buckinghamshire, UK) per well was added and incubation was continued for two additional hours at 37° C. The assay was terminated by aspirating the culture medium and washing with ice-cold phosphate buffered saline followed by 5% trichloroacetic acid. The cells where then lysed by applying 0.3 N NaOH (75 μl per well) followed by 0.3 N HCl (75 μl per well) to neutralize the NaOH. The radioactivity in 50-μl aliquots was determined by liquid scintillation counting in 96-well plates (Packard Instrument Corporation) using a TopCount™ Scintillation Counter (Packard Instrument Corporation).

C2C12 cells [4] = details: C2C12, addition of DHT, fusion medium
Text: (§4) Fusion medium was changed daily. C2hAR57 cells at low density in high mitogen growth medium appeared as small, adherent mononuclear cells.

C2C12 cells [5] = details: C2C12, 100 nM DHT
Procedure: (§2) Each cell sample was pelleted by low-speed centrifugation and resuspended in 0.5 ml phosphate buffered saline containing 100 micrograms/ml ribonuclease A and 20 microgram/ml propidium iodide for 30 minutes at room temperature.

C2hAR57 cells [6] = details: C2hAR57, 100 nM DHT
Procedure: as §2

C2hAR57 cells [7] = details: for Change in protein content: during 24 hours in fusion medium
Procedure: Procedure B—24 Hours in fusion medium. […] Cell extracts were prepared from the second set of cultures after 24 hours in fusion medium (day one). The change in protein content was determined by subtracting the average protein content for each treatment on day zero from the average protein content on day one.

[8] = system: IGF-II transcripts in C2hAR57 cells; details: C2hAR57, 100 nM DHT
Procedure: Day zero samples were harvested just prior to the induction of differentiation. […] Total RNA was isolated using Trizol®, and RNA concentration was determined by UV spectroscopy. Samples containing 20 micrograms of total RNA were separated by electrophoresis on formaldehyde-containing agarose gels, transferred to Duralon-UV™ nylon membrane (Stratagene, La Jolla, Calif.) by capillary blotting in 5×SSPE and probed sequentially for IGFBP4, IGF-II and 18S ribosomal RNA. DNA fragments used for probes were generated by reverse transcription polymerase chain reaction using rat skeletal muscle poly A+ RNA as template. […] Probes were denatured by boiling and used at a concentration of 1-2×10^6 dpm/ml hybridization solution (50% formamide, 6×SSC, 1% SDS, 15×Denhardt's solution, 0.1 mg/ml sheared salmon sperm DNA). Following hybridization at 42° C. for at least 24 hours, the membranes were washed to moderate stringency with 0.3×SSC/0.1% SDS at 55° C. […] Between successive probings, the membrane was stripped by incubation at 70° C. for one to three hours in a solution consisting of 5 mM Tris HCl, pH 8, 0.2 mM Na2EDTA, 0.05% sodium pyrophosphate and 0.1×Denhardt's solution. The imaging plate was exposed for 42 hours and 90 minutes to the IGFBP4 and IGF-II hybridizations, respectively. The 18S signal was used to normalize the hybridization signals from each of the other probes.

C2C12 cells [9] = details: C2C12, 100 nM DHT, 24 hours in fusion medium
Procedure: (§3) All cultures were approximately 80% confluent at the time of mitogen withdrawal. After 24 hour in fusion medium, the medium containing nonadherent cells was transferred to centrifuge tubes. The dishes were then rinsed with phosphate buffered saline and adherent cells were collected by trypsinization. Cell pellets were recovered by centrifugation and lysed in 50 mM Tris HCl, pH 8, 100 mM Na2EDTA, 0.5% sodium dodecylsulfate. […] DNA yields from pools of five dishes were determined by UV spectroscopy at 260 nm. Aliquots corresponding to 10 μg DNA were analyzed by electrophoresis on a 1% agarose gel in TBE buffer and visualized by ethidium bromide fluorescence with UV transillumination.

C2hAR57 cells [10] = details: C2hAR57, 100 nM DHT; remark: listed apart in the source
Procedure: as §3

C2hAR57 cells [11] = details: C2hAR57, 100 nM DHT, 1, 2 or 3 days in fusion medium
Text: as §4

Q: What does the source list for `C[C@]12CCC(=O)C[C@@H]1CC[C@@H]1[C@@H]2CC[C@]2(C)[C@@H](O)CC[C@@H]12` [DHT, dihydrotestosterone]?
A: protein content (C2C12 cells [1]; C2C12, 0.001 nM DHT): 245 ± 5 micrograms/well; protein content, percentage difference from vehicle (C2C12 cells [1]; C2C12, 0.001 nM DHT): +3%; protein content (C2C12 cells [1]; C2C12, 0.01 nM DHT): 228 ± 3 micrograms/well; protein content, percentage difference from vehicle (C2C12 cells [1]; C2C12, 0.01 nM DHT): −4%; protein content (C2C12 cells [1]; C2C12, 0.1 nM DHT): 246 ± 4 micrograms/well; protein content, percentage difference from vehicle (C2C12 cells [1]; C2C12, 0.1 nM DHT): +3%; protein content (C2C12 cells [1]; C2C12, 1 nM DHT): 256 ± 9 micrograms/well; protein content, percentage difference from vehicle (C2C12 cells [1]; C2C12, 1 nM DHT): +7%; protein content (C2C12 cells [1]; C2C12, 10 nM DHT): 243 ± 6 micrograms/well; protein content, percentage difference from vehicle (C2C12 cells [1]; C2C12, 10 nM DHT): +2%; protein content (C2C12 cells [1]; C2C12, 100 nM DHT): 243 ± 6 micrograms/well; protein content, percentage difference from vehicle (C2C12 cells [1]; C2C12, 100 nM DHT): +2%; protein content (C2C12 cells [1]; C2C12, 1000 nM DHT): 278 ± 2 micrograms/well; protein content, percentage difference from vehicle (C2C12 cells [1]; C2C12, 1000 nM DHT): +17%; change in total protein content (C2C12 cells [1]; C2C12 cultures, DHT 10^-12-10^-6 M, Procedure A): no consistent change; protein content (C2hAR57 cells [2]; C2hAR57, 0.001 nM DHT): 123 ± 6 micrograms/well; protein content, percentage difference from vehicle (C2hAR57 cells [2]; C2hAR57, 0.001 nM DHT): −1%; protein content (C2hAR57 cells [2]; C2hAR57, 0.01 nM DHT): 127 ± 11 micrograms/well; protein content, percentage difference from vehicle (C2hAR57 cells [2]; C2hAR57, 0.01 nM DHT): +3%; protein content (C2hAR57 cells [2]; C2hAR57, 0.1 nM DHT): 152 ± 2 micrograms/well; protein content, percentage difference from vehicle (C2hAR57 cells [2]; C2hAR57, 0.1 nM DHT): +23%; protein content (C2hAR57 cells [2]; C2hAR57, 1 nM DHT): 188 ± 4 micrograms/well; protein content, percentage difference from vehicle (C2hAR57 cells [2]; C2hAR57, 1 nM DHT): +52%; protein content (C2hAR57 cells [2]; C2hAR57, 10 nM DHT): 199 ± 10 micrograms/well; protein content, percentage difference from vehicle (C2hAR57 cells [2]; C2hAR57, 10 nM DHT): +61%; protein content (C2hAR57 cells [2]; C2hAR57, 100 nM DHT): 200 ± 4 micrograms/well; protein content, percentage difference from vehicle (C2hAR57 cells [2]; C2hAR57, 100 nM DHT): +62%; protein content (C2hAR57 cells [2]; C2hAR57, 1000 nM DHT): 212 ± 3 micrograms/well; protein content, percentage difference from vehicle (C2hAR57 cells [2]; C2hAR57, 1000 nM DHT): +71%; dose-related increase in total protein content (C2hAR57 cells [2]; differentiating C2hAR57 cultures, DHT 10^-12-10^-6 M, Procedure A): up to 71%; effect on [3H]-thymidine uptake (C2hAR57 cells [3]): dose-dependent inhibitory effects; rate and extent of myotube formation (C2C12 cells [4]): neither the rate nor the extent of myotube formation in cultures of C2C12 was visibly affected; effect on fraction of cells at each stage of the cell cycle (C2C12 cells [5]): unaffected; Percentage of cells in G2-M (C2C12 cells [5]; 24 h): 15.6 ± 1.2%; Percentage of cells in GO-G1 (C2C12 cells [5]; 24 h): 40.3 ± 0.8%; Percentage of cells in S (C2C12 cells [5]; 24 h): 45.3 ± 1.1%; Percentage of cells in G2-M (C2C12 cells [5]; 48 h): 15.8 ± 0.7%; Percentage of cells in GO-G1 (C2C12 cells [5]; 48 h): 38.0 ± 0.6%; Percentage of cells in S (C2C12 cells [5]; 48 h): 46.2 ± 0.7%; Percentage of cells in G2-M (C2hAR57 cells [6]; 24 h): 14.3 ± 0.4 %; Percentage of cells in GO-G1 (C2hAR57 cells [6]; 24 h): 54.5 ± 0.7 %; Percentage of cells in S (C2hAR57 cells [6]; 24 h): 31.2 ± 0.6 %; Percentage of cells in G2-M (C2hAR57 cells [6]; 48 h): 15.1 ± 1.1 %; Percentage of cells in GO-G1 (C2hAR57 cells [6]; 48 h): 51.2 ± 2.8 %; Percentage of cells in S (C2hAR57 cells [6]; 48 h): 33.7 ± 3.2 %; Change in protein content (C2hAR57 cells [7]; C2hAR57, 0.001 nM DHT): −93 micrograms/well; Change in protein content (C2hAR57 cells [7]; C2hAR57, 0.1 nM DHT): −56 micrograms/well; Change in protein content (C2hAR57 cells [7]; C2hAR57, 10 nM DHT): +48 micrograms/well; Change in protein content (C2hAR57 cells [7]; C2hAR57, 1000 nM DHT): +61 micrograms/well; effect on net loss of protein seen with vehicle (C2hAR57 cells [7]; C2hAR57, increasing concentrations of DHT, Procedure B): ameliorated and even reversed; increase of IGF-II transcripts ([8]; 0 days in fusion medium): 10.2 ×; increase of IGF-II transcripts ([8]; 1 day in fusion medium): 3.6 ×; increase of IGF-II transcripts ([8]; 2 days in fusion medium): 2 ×; DNA, adherent cells (C2C12 cells [9]): 504 μg/dish; DNA, nonadherent cells (% total) (C2C12 cells [9]): 2.9%; effect on the fraction of nonadherent cells (C2C12 cells [9]): did not appreciably alter; reduction of the incidence of apoptotic cells (C2hAR57 cells [10]; 24 hour period following mitogen withdrawal): approximately 75%; DNA, adherent cells (C2hAR57 cells [10]; 24 hours in fusion medium): 528 μg/dish; DNA, nonadherent cells (C2hAR57 cells [10]; 24 hours in fusion medium): 2.6 μg/dish; DNA, nonadherent cells (% total) (C2hAR57 cells [10]; 24 hours in fusion medium): 0.5%; rate of myotube formation (C2hAR57 cells [11]): more rapidly
